# From PMC12624955, “Exploring diarylheptanoid derivatives to target LIMK1 as potential agents against colorectal cancer” (Journal of Enzyme Inhibition and Medicinal Chemistry, 2025)
# Key:
# Type in all cases: biochemical
# AKT1 (PKB alpha) = target: T1, AKT1 (PKB alpha) (Homo sapiens, UniProt P31749); assay: SelectScreen kinase panel, Z′-LYTE kinase assay; conditions: read-out: Inhibition percentage at 1 μM
# T1 construct: purchased Thermo Fisher Scientific SelectScreen
# Method: (§1) Kinase panel screening was carried out using the SelectScreen Kinase Assay (Thermo Fisher Scientific, Waltham, MA, USA). Three complementary assay formats were applied: the Z′-LYTE kinase assay, LanthaScreen Eu kinase binding assay, and Adapta Universal kinase assay. The kinases selected for this study and the corresponding assay formats are summarised in Supplementary Table S1.
# (§2) The Z′-LYTE Kinase Assay (Thermo Fisher Scientific, Waltham, MA, USA) was used to evaluate selected kinases’ activity, according to the manufacturer’s instructions (https://www.thermofisher.com/tw/zt/home/industrial/pharma-biopharma/drug-discovery-development/target-and-lead-identification-and-validation/kinasebiology/kinase-activity-assays/z-lyte/z-lyte-reactivity-table.html). This endpoint assay quantifies kinase activity by detecting peptide substrate phosphorylation. Briefly, a 2× mixture of selected kinase and relevant substrate was prepared in kinase buffer (0.01% polyoxyethylene lauryl ether (BRIJ-35), 50 mM 4-(2-hydroxyethyl)-1-piperazineethanesulfonic acid (HEPES), pH 7.5, 1 mM ethylene glycol-bis(β-aminoethyl ether)-N,N,N′,N′-tetraacetic acid (EGTA), and 10 mM MgCl2). After 1 h incubation at room temperature, 5 μl of 1:128 diluted development reagent solution was added, followed by an additional 1 h incubation. Fluorescence was recorded using a multimode plate reader.
# AURKA (Aurora A) = target: T2, AURKA (Aurora A) (Homo sapiens, UniProt O14965); assay: SelectScreen kinase panel, Z′-LYTE kinase assay; conditions: read-out: Inhibition percentage at 1 μM
# T2 construct: purchased Thermo Fisher Scientific SelectScreen
# Method: as §1, §2
# BTK = target: T3, BTK (Homo sapiens, UniProt Q06187); assay: SelectScreen kinase panel, Z′-LYTE kinase assay; conditions: read-out: Inhibition percentage at 1 μM
# T3 construct: purchased Thermo Fisher Scientific SelectScreen
# Method: as §1, §2
# CAMK2B (CaMKII beta) = target: T4, CAMK2B (CaMKII beta) (Homo sapiens, UniProt Q13554); assay: SelectScreen kinase panel, Z′-LYTE kinase assay; conditions: read-out: Inhibition percentage at 1 μM
# T4 construct: purchased Thermo Fisher Scientific SelectScreen
# Method: as §1, §2
# CDK2/cyclin A = target: T5, CDK2/cyclin A (Homo sapiens, UniProt P24941); assay: SelectScreen kinase panel, Z′-LYTE kinase assay; conditions: read-out: Inhibition percentage at 1 μM
# T5 construct: purchased Thermo Fisher Scientific SelectScreen
# Method: as §1, §2
# CSNK1D (CK1 delta) = target: T6, CSNK1D (CK1 delta) (Homo sapiens, UniProt P48730); assay: SelectScreen kinase panel, Z′-LYTE kinase assay; conditions: read-out: Inhibition percentage at 1 μM
# T6 construct: purchased Thermo Fisher Scientific SelectScreen
# Method: as §1, §2
# CSNK1G1 (CK1 gamma 1) = target: T7, CSNK1G1 (CK1 gamma 1) (Homo sapiens, UniProt Q9HCP0); assay: SelectScreen kinase panel, Z′-LYTE kinase assay; conditions: read-out: Inhibition percentage at 1 μM
# T7 construct: purchased Thermo Fisher Scientific SelectScreen
# T7 sequence (Q9HCP0 whole entry): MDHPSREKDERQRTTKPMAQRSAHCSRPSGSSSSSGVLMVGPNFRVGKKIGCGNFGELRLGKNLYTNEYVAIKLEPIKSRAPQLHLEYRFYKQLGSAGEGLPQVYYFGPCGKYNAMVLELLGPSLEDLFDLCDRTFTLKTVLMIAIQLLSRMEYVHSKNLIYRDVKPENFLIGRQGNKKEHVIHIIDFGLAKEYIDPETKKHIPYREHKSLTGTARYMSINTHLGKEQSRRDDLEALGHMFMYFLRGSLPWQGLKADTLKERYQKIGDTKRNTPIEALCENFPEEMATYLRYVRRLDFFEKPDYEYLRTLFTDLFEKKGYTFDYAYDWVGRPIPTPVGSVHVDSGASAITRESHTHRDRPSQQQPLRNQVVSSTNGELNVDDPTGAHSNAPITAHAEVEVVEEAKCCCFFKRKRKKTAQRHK
# Method: as §1, §2
# DCAMKL1 (DCLK1) = target: T8, DCAMKL1 (DCLK1) (Homo sapiens, UniProt O15075); assay: SelectScreen kinase panel, Z′-LYTE kinase assay; conditions: read-out: Inhibition percentage at 1 μM
# T8 construct: purchased Thermo Fisher Scientific SelectScreen
# Method: as §1, §2
# DYRK1B = target: T9, DYRK1B (Homo sapiens, UniProt Q9Y463); assay: SelectScreen kinase panel, Z′-LYTE kinase assay; conditions: read-out: Inhibition percentage at 1 μM
# T9 construct: purchased Thermo Fisher Scientific SelectScreen
# Method: as §1, §2
# ERBB4 (HER4) = target: T10, ERBB4 (HER4) (Homo sapiens, UniProt Q15303); assay: SelectScreen kinase panel, Z′-LYTE kinase assay; conditions: read-out: Inhibition percentage at 1 μM
# T10 construct: purchased Thermo Fisher Scientific SelectScreen
# Method: as §1, §2
# FGFR1 = target: T11, FGFR1 (Homo sapiens, UniProt P11362); assay: SelectScreen kinase panel, Z′-LYTE kinase assay; conditions: read-out: Inhibition percentage at 1 μM
# T11 construct: purchased Thermo Fisher Scientific SelectScreen
# Method: as §1, §2
# HIPK1 (Myak) = target: T12, HIPK1 (Myak) (Homo sapiens, UniProt Q86Z02); assay: SelectScreen kinase panel, Z′-LYTE kinase assay; conditions: read-out: Inhibition percentage at 1 μM
# T12 construct: purchased Thermo Fisher Scientific SelectScreen
# Method: as §1, §2
# IKBKB (IKK beta) = target: T13, IKBKB (IKK beta) (Homo sapiens, UniProt O14920); assay: SelectScreen kinase panel, Z′-LYTE kinase assay; conditions: read-out: Inhibition percentage at 1 μM
# T13 construct: purchased Thermo Fisher Scientific SelectScreen
# T13 sequence (O14920 whole entry): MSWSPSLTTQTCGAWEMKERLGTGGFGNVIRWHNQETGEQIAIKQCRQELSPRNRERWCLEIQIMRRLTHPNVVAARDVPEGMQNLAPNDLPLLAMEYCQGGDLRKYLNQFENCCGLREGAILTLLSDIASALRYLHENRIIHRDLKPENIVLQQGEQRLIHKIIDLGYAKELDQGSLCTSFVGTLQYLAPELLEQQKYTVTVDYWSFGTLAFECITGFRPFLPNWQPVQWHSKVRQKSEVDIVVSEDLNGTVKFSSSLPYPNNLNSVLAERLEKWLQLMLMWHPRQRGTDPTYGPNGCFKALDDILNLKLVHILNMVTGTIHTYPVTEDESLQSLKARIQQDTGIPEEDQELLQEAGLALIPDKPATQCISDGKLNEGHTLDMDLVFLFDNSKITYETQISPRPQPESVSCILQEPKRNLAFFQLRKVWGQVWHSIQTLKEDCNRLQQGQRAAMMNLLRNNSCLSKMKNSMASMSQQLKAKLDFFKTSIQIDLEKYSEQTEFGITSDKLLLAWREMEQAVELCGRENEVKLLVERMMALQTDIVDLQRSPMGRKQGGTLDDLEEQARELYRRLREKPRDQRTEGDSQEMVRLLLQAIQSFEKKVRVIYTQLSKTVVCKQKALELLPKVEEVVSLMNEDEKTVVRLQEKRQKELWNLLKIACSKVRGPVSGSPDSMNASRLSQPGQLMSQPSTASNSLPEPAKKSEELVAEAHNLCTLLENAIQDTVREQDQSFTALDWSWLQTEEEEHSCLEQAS
# Method: as §1, §2
# IRAK4 = target: T14, IRAK4 (Homo sapiens, UniProt Q9NWZ3); assay: SelectScreen kinase panel, Z′-LYTE kinase assay; conditions: read-out: Inhibition percentage at 1 μM
# T14 construct: purchased Thermo Fisher Scientific SelectScreen
# T14 sequence (Q9NWZ3 whole entry): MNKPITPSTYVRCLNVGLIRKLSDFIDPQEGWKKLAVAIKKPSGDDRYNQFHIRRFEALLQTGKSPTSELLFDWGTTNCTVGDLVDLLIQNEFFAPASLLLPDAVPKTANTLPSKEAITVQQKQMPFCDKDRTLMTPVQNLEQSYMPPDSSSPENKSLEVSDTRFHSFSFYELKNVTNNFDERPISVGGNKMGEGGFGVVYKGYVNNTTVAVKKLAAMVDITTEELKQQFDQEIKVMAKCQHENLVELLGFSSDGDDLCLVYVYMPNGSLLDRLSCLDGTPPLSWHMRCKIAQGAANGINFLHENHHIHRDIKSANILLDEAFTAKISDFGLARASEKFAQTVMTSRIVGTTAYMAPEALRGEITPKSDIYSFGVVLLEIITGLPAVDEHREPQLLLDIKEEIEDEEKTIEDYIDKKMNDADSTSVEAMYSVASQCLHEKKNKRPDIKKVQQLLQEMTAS
# Method: as §1, §2
# LCK = target: T15, LCK (Homo sapiens, UniProt P06239); assay: SelectScreen kinase panel, Z′-LYTE kinase assay; conditions: read-out: Inhibition percentage at 1 μM
# T15 construct: purchased Thermo Fisher Scientific SelectScreen
# Method: as §1, §2
# MAP3K9 (MLK1) = target: T16, MAP3K9 (MLK1) (Homo sapiens, UniProt P80192); assay: SelectScreen kinase panel, Z′-LYTE kinase assay; conditions: read-out: Inhibition percentage at 1 μM
# T16 construct: purchased Thermo Fisher Scientific SelectScreen
# Method: as §1, §2
# MAPK3 (ERK1) = target: T17, MAPK3 (ERK1) (Homo sapiens, UniProt P27361); assay: SelectScreen kinase panel, Z′-LYTE kinase assay; conditions: read-out: Inhibition percentage at 1 μM
# T17 construct: purchased Thermo Fisher Scientific SelectScreen
# T17 sequence (P27361 whole entry): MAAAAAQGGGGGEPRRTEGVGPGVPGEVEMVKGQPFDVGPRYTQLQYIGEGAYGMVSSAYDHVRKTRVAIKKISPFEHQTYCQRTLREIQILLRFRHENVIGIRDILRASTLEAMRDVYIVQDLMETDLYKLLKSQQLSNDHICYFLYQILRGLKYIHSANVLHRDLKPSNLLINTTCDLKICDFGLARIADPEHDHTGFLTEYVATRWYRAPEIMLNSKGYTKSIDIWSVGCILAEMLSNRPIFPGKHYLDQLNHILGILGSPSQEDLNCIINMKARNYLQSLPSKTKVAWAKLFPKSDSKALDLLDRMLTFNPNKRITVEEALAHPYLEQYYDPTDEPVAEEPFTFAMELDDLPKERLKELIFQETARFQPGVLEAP
# Method: as §1, §2
# MARK3 = target: T18, MARK3 (Homo sapiens, UniProt P27448); assay: SelectScreen kinase panel, Z′-LYTE kinase assay; conditions: read-out: Inhibition percentage at 1 μM
# T18 construct: purchased Thermo Fisher Scientific SelectScreen
# Method: as §1, §2
# MINK1 = target: T19, MINK1 (Homo sapiens, UniProt Q8N4C8); assay: SelectScreen kinase panel, Z′-LYTE kinase assay; conditions: read-out: Inhibition percentage at 1 μM
# T19 construct: purchased Thermo Fisher Scientific SelectScreen
# Method: as §1, §2
# MKNK1 (MNK1) = target: T20, MKNK1 (MNK1) (Homo sapiens, UniProt Q9BUB5); assay: SelectScreen kinase panel, Z′-LYTE kinase assay; conditions: read-out: Inhibition percentage at 1 μM
# T20 construct: purchased Thermo Fisher Scientific SelectScreen
# T20 sequence (Q9BUB5 whole entry): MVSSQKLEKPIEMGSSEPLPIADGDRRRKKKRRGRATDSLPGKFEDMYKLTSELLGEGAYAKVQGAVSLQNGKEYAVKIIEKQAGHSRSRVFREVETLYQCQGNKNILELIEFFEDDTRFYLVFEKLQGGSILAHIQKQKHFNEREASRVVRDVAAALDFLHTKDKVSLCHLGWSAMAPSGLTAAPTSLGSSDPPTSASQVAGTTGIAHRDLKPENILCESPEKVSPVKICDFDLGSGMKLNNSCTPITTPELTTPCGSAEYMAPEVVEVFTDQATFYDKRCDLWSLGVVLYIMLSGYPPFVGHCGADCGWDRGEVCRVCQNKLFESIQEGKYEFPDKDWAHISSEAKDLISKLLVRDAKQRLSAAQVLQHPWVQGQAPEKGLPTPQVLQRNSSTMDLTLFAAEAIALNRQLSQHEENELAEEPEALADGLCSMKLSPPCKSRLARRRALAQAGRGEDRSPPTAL
# Method: as §1, §2
# NEK1 = target: T21, NEK1 (Homo sapiens, UniProt Q96PY6); assay: SelectScreen kinase panel, Z′-LYTE kinase assay; conditions: read-out: Inhibition percentage at 1 μM
# T21 construct: purchased Thermo Fisher Scientific SelectScreen
# Method: as §1, §2
# NTRK1 (TRKA) = target: T22, NTRK1 (TRKA) (Homo sapiens, UniProt P04629); assay: SelectScreen kinase panel, Z′-LYTE kinase assay; conditions: read-out: Inhibition percentage at 1 μM
# T22 construct: purchased Thermo Fisher Scientific SelectScreen
# Method: as §1, §2
# PAK2 (PAK65) = target: T23, PAK2 (PAK65) (Homo sapiens, UniProt Q13177); assay: SelectScreen kinase panel, Z′-LYTE kinase assay; conditions: read-out: Inhibition percentage at 1 μM
# T23 construct: purchased Thermo Fisher Scientific SelectScreen
# T23 sequence (Q13177 whole entry): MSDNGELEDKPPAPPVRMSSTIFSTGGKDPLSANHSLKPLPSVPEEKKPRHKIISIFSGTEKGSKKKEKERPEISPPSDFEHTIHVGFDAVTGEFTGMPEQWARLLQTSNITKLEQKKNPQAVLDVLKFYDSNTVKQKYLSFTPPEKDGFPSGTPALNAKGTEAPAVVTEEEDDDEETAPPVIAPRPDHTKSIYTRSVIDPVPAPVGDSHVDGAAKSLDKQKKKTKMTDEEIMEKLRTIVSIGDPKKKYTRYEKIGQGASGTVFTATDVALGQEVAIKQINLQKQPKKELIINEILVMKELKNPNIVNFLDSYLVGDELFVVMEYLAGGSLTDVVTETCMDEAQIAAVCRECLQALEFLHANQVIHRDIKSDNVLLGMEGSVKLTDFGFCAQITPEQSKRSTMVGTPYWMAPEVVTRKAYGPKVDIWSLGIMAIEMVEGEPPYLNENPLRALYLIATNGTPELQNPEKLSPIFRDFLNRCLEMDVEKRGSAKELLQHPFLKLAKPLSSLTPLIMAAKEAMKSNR
# Method: as §1, §2
# PIM1 = target: T24, PIM1 (Homo sapiens, UniProt P11309); assay: SelectScreen kinase panel, Z′-LYTE kinase assay; conditions: read-out: Inhibition percentage at 1 μM
# T24 construct: purchased Thermo Fisher Scientific SelectScreen
# Method: as §1, §2
# PLK2 = target: T25, PLK2 (Homo sapiens, UniProt Q9NYY3); assay: SelectScreen kinase panel, Z′-LYTE kinase assay; conditions: read-out: Inhibition percentage at 1 μM
# T25 construct: purchased Thermo Fisher Scientific SelectScreen
# T25 sequence (Q9NYY3 whole entry): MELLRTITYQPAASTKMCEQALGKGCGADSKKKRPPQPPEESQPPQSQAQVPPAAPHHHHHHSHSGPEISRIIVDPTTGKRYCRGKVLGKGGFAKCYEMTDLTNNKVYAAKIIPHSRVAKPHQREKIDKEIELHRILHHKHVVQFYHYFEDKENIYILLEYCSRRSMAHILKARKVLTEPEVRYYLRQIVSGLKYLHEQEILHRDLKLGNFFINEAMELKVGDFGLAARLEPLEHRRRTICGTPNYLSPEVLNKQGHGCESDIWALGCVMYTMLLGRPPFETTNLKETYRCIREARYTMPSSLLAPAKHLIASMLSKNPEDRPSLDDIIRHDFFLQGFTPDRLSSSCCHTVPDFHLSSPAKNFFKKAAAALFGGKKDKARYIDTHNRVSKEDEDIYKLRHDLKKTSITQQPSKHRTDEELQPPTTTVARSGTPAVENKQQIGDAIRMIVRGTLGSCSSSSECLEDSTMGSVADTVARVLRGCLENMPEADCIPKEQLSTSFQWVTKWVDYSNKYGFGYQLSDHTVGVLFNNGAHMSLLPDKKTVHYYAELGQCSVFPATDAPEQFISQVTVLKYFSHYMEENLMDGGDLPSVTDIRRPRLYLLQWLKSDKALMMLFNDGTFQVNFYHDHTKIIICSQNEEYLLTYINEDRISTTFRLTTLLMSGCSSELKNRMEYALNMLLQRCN
# Method: as §1, §2
# PRKACA (PKA) = target: T26, PRKACA (PKA) (Homo sapiens, UniProt P17612); assay: SelectScreen kinase panel, Z′-LYTE kinase assay; conditions: read-out: Inhibition percentage at 1 μM
# T26 construct: purchased Thermo Fisher Scientific SelectScreen
# Method: as §1, §2
# PRKCA (PKC alpha) = target: T27, PRKCA (PKC alpha) (Homo sapiens, UniProt P17252); assay: SelectScreen kinase panel, Z′-LYTE kinase assay; conditions: read-out: Inhibition percentage at 1 μM
# T27 construct: purchased Thermo Fisher Scientific SelectScreen
# Method: as §1, §2
# ROCK1 = target: T28, ROCK1 (Homo sapiens, UniProt Q13464); assay: SelectScreen kinase panel, Z′-LYTE kinase assay; conditions: read-out: Inhibition percentage at 1 μM
# T28 construct: purchased Thermo Fisher Scientific SelectScreen
# T28 sequence (Q13464 whole entry): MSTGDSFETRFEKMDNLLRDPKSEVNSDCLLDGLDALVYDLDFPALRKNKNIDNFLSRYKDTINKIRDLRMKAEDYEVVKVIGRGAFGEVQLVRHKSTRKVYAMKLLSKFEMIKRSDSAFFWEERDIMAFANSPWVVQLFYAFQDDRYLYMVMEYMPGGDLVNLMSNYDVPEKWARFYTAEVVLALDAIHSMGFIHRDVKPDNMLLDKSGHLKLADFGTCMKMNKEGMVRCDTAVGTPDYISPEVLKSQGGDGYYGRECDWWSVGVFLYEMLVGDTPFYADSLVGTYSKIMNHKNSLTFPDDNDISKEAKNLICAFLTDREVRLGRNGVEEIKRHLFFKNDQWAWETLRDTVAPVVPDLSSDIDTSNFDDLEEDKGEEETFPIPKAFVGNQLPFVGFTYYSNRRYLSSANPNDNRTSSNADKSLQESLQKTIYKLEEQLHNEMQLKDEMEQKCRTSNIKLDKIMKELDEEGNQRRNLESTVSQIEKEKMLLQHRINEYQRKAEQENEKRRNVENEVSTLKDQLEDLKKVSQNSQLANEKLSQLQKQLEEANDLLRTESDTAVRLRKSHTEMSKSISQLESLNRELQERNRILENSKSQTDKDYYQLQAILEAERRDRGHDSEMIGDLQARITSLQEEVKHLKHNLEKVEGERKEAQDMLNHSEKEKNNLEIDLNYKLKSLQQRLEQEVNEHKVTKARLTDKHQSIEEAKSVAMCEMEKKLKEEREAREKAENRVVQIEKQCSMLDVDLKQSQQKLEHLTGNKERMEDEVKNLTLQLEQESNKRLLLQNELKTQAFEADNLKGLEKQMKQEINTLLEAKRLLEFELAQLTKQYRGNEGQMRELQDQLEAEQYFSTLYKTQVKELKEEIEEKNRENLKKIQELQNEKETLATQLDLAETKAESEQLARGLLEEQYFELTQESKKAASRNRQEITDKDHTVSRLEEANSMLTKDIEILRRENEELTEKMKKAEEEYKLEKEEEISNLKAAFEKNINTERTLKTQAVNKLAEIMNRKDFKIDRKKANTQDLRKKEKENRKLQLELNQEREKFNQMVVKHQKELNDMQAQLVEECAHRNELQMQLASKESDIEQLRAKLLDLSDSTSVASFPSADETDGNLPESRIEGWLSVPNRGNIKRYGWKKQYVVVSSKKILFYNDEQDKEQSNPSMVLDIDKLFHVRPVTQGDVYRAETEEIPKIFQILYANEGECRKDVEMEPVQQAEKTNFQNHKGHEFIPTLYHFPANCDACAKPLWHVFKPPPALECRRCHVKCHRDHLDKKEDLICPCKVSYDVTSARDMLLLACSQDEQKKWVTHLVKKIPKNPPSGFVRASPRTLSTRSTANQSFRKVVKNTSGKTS
# Method: as §1, §2
# RPS6KA3 (RSK2) = target: T29, RPS6KA3 (RSK2) (Homo sapiens, UniProt P51812); assay: SelectScreen kinase panel, Z′-LYTE kinase assay; conditions: read-out: Inhibition percentage at 1 μM
# T29 construct: purchased Thermo Fisher Scientific SelectScreen
# Method: as §1, §2
# SRC = target: T30, SRC (Homo sapiens, UniProt P12931); assay: SelectScreen kinase panel, Z′-LYTE kinase assay; conditions: read-out: Inhibition percentage at 1 μM
# T30 construct: purchased Thermo Fisher Scientific SelectScreen
# Method: as §1, §2
# STK3 (MST2) = target: T31, STK3 (MST2) (Homo sapiens, UniProt Q13188); assay: SelectScreen kinase panel, Z′-LYTE kinase assay; conditions: read-out: Inhibition percentage at 1 μM
# T31 construct: purchased Thermo Fisher Scientific SelectScreen
# Method: as §1, §2
# [1] = test system: panel of 40 kinases from various families; assay: Kinase panel screening (SelectScreen), whole panel; conditions: all 40 kinases; 1 μM
# Method: as §1
# as §2, with “reader. […]” for “reader.”
smiles,measurement,setting,value
"O=C(/C=C/c1ccc(O)c(O)c1)CCCCn1ccc2c(O)cccc21 [Compound 13a, (E)-1-(3,4-dihydroxyphenyl)-7-(4-hydroxy-1H-indol-1-yl)hept-1-en-3-one]",inhibition at 1 µM,AKT1 (PKB alpha),2%
same,inhibition at 1 µM,AURKA (Aurora A),18%
same,inhibition at 1 µM,BTK,19%
same,inhibition at 1 µM,CAMK2B (CaMKII beta),19%
same,inhibition at 1 µM,CDK2/cyclin A,0%
same,inhibition at 1 µM,CSNK1D (CK1 delta),7%
same,inhibition at 1 µM,CSNK1G1 (CK1 gamma 1),4%
same,inhibition at 1 µM,DCAMKL1 (DCLK1),1%
same,inhibition at 1 µM,DYRK1B,4%
same,inhibition at 1 µM,ERBB4 (HER4),15%
same,inhibition at 1 µM,FGFR1,3%
same,inhibition at 1 µM,HIPK1 (Myak),2%
same,inhibition at 1 µM,IKBKB (IKK beta),8%
same,inhibition at 1 µM,IRAK4,4%
same,inhibition at 1 µM,LCK,-6%
same,inhibition at 1 µM,MAP3K9 (MLK1),2%
same,inhibition at 1 µM,MAPK3 (ERK1),6%
same,inhibition at 1 µM,MARK3,6%
same,inhibition at 1 µM,MINK1,13%
same,inhibition at 1 µM,MKNK1 (MNK1),8%
same,inhibition at 1 µM,NEK1,-1%
same,inhibition at 1 µM,NTRK1 (TRKA),-7%
same,inhibition at 1 µM,PAK2 (PAK65),4%
same,inhibition at 1 µM,PIM1,12%
same,inhibition at 1 µM,PLK2,16%
same,inhibition at 1 µM,PRKACA (PKA),5%
same,inhibition at 1 µM,PRKCA (PKC alpha),13%
same,inhibition at 1 µM,ROCK1,10%
same,inhibition at 1 µM,RPS6KA3 (RSK2),8%
same,inhibition at 1 µM,SRC,0%
same,inhibition at 1 µM,STK3 (MST2),0%
same,inhibition percentages across the panel of 40 kinases,[1],below 50%
